Test results from patent US11702422B2, “Imidazopyridazines as modulators of IL-17” (Janssen Pharmaceutica NV, priority 2020, dated 2023).

biological target: IL-17A(FLAG-Tagged): IL-17RA(His-Tagged) (Homo sapiens, UniProt Q16552, K93Q); test: IL-17A(FLAG-Tagged): IL-17RA(His-Tagged) Binding Disruption Eu-HTRF Assay; settings: IL-17A/IL-17RA binding disruption, simple average if tested more than once
Source text: IL-17A(FLAG-Tagged): IL-17RA(His-Tagged) Binding Disruption Eu-HTRF Assay
An antibody directed against the FLAG tag of IL-17A (SEQ ID NO:1) is labeled with the HTRF donor chromophore (Europium-cryptate). IL-17A is present as a dimer that is “locked into” this quaternary structure due to the formation of loop-spanning […] disulfide bridges. The construct of IL-17RA used in the assay excludes the […] portion of the receptor and is fused to a C-terminal 10×His tag (SEQ ID NO:2). An antibody directed against the His tag of the IL-17RA chimera is labeled with the HTRF acceptor chromophore (“D2”). The fluorescence-resonance energy transfer (FRET) depends on the vicinity of the donor chromophore to the acceptor, and interruption of the binding between the IL-17A and IL-17RA causes the reduction/loss of FRET. Therefore, this assay allows to evaluate the compound effect on the binding IL-17A and IL-17RA by monitoring the fluorescence intensity of donor vs acceptor. The assay is run as described below.
40 nl of 2-fold serial diluted compound solution for total 22 dilution points is added into each well of a 1536-well, white, low-volume, non-binding plate (Greiner #782904), then 2 μl of FLAG tagged IL-17A at 2× final concentration (2.5 nM) in solution of PBS+0.01% Triton-X100 is added to each well. The assay plate is briefly centrifuged then incubated for 1 h at rt. A mixed solution is prepared containing 2×5 nM 10HIS×IL-17RA, 2×2.5 nM Eu-anti-FLAG (CISBIO), 2×5 nM D2-anti-HIS (CISBIO) in PBS+0.01% Triton-X100+200 mM Potassium Fluoride (Sigma 60238) and 2 μl of mix is added to each well of the assay plate. The plate is briefly centrifuged then incubated for 2 h at rt. The HTRF intensities at the wavelength of donor (620 nm) and acceptor (665 nm) are measured using BMG Pherastar. The ratio between intensities at two wavelengths is calculated and plotted against the compound concentration and the data is fitted to a one-site competition model to yield IC50 of the compound.

Chain of UniProt Q16552 (Q16552 with tags, fused parts or gaps K93Q): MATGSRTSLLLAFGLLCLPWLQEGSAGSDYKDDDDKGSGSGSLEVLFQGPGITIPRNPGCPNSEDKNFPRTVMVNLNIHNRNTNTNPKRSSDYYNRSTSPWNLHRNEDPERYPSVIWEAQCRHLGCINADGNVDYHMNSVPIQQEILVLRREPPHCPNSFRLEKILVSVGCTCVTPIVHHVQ

Point of comparison: `O=C(CCC(F)(F)F)NC(c1cnn2cc([C@@H](NC(=O)c3ccccc3)C3CCC(F)(F)CC3)nc2c1)C1CC1` (single isomer, unassigned) [Example 13, N—((S)-(7-((S*)-Cyclopropyl(4,4,4-trifluorobutanamido)methyl)imidazo[1,2-b]pyridazin-2-yl)(4,4-difluorocyclohexyl)methyl)benzamide], IC50 7600 nM. Against it:
- Cc1nocc1C(=O)N[C@H](c1cn2ncc(C(NC(=O)CCC(F)(F)F)C(C)C)cc2n1)C1CCC(F)(F)CC1 (mixture of isomers) [Example 134, N—((S)-(4,4-Difluorocyclohexyl)(7-(2-methyl-1-(4,4,4-trifluorobutanamido)propyl)imidazo[1,2-b]pyridazin-2-yl)methyl)-3-methylisoxazole-4-carboxamide] — 42-fold lower, 180 nM
- O=C(CCC(F)(F)F)N[C@@H](c1cnn2cc([C@@H](NC(=O)C3CC3C(F)(F)F)C3CCC(F)(F)CC3)nc2c1)C1CC1 (mixture of isomers) [Example 43, (Trans-1,2)-N—((S)-(7-((R)-cyclopropyl(4,4,4-trifluorobutanamido)methyl)imidazo[1,2-b]pyridazin-2-yl)(4,4-difluorocyclohexyl)methyl)-2-(trifluoromethyl)cyclopropane-1-carboxamide] — 32-fold lower, 240 nM
- Cc1nonc1C(=O)N[C@H](c1cn2ncc([C@H](NC(=O)[C@H]3CNC[C@@H]3C(F)(F)F)C3CC3)cc2n1)C1CCC(F)(F)CC1 (relative stereo) [Example 355, N—((S)-(7-((R)-Cyclopropyl((trans-3R*,4R*)-4-(trifluoromethyl)pyrrolidine-3-carboxamido)methyl)imidazo[1,2-b]pyridazin-2-yl)(4,4-difluorocyclohexyl)methyl)-4-methyl-1,2,5-oxadiazole-3-carboxamide] — 2.5-fold higher, 19000 nM
- Cc1nonc1C(=O)N[C@H](c1cn2ncc([C@H](NC(=O)CCCC#N)C3CC3)cc2n1)C1CCC(F)(F)CC1 [Example 351, N—((S)-(7-((R)-(4-Cyanobutanamido)(cyclopropyl)methyl)imidazo[1,2-b]pyridazin-2-yl)(4,4-difluorocyclohexyl)methyl)-4-methyl-1,2,5-oxadiazole-3-carboxamide] — 2.9-fold lower, 2600 nM

test system: IL-17A-induced G-CSF production in human normal keratinocyte (NHK); test: NHK Assay: IL-17A-induced G-CSF production in human normal keratinocytes; assay type: cell-based; settings: Homo sapiens, Keratinocyte, 24 h, adult normal human keratinocytes, IL-17A 5 ng/mL, simple average if tested more than once
Protocol: IL-17A acts directly on keratinocytes through binding to dimeric receptor IL-17RA/RC and drives the production of a number of inflammatory mediators known to be elevated in psoriasis lesional tissue. IL-17A small molecule inhibitors that block the IL-17A to interact with IL-17R would inhibit the IL-17A signaling in its targeted cells such as keratinocytes. The compound functional activity is evaluated for its impact on IL-17A-induced G-CSF production in human normal keratinocyte (NHK).
Adult normal human keratinocytes are cultured in keratinocyte growth medium (Lonza) in a flask till reaching ˜ 90% confluence, then cells are transferred to a 384-well plate at density of 3000-4000 cell/well. Recombinant human IL-17A (Gibco PHC9174) is pre-incubated with titrated compound or DMSO for 1 h at rt then added to the cell culture plate. The final concentration of IL-17A is 5 ng/mL and DMSO is 0.2%, in the culture containing 5% FBS. Cells are cultured/treated for 24 h at 37° C. Supernatants are collected and G-CSF production is measured through HTRF technology using Human G-CSF Kit (CisBio). G-CSF concentration was extrapolated from the standard curve and IC50 is determined using GraphPad Prism. Cell viability is also evaluated using CellTiter-Glo kit (Promega) and effect of compound on cell viability is compared to DMSO control.

Point of comparison: `CC(C)(C)Oc1nonc1C(=O)N[C@H](c1cn2ncc([C@H](NC(=O)CC3CC(F)(F)C3)C3CC3)cc2n1)C1CCC(F)(F)CC1` [Example 392, 4-(tert-Butoxy)-N—((S)-(7-((R)-cyclopropyl(2-(3,3-difluorocyclobutyl)acetamido)methyl)imidazo[1,2-b]pyridazin-2-yl)(4,4-difluorocyclohexyl)methyl)-1,2,5-oxadiazole-3-carboxamide], IC50 37 nM. Against it:
- Cc1nocc1C(=O)N[C@H](c1cn2ncc(C(NC(=O)CCC(F)(F)F)C(C)C)cc2n1)C1CCC(F)(F)CC1 (mixture of isomers) [Example 134, N—((S)-(4,4-Difluorocyclohexyl)(7-(2-methyl-1-(4,4,4-trifluorobutanamido)propyl)imidazo[1,2-b]pyridazin-2-yl)methyl)-3-methylisoxazole-4-carboxamide] — 3-fold higher, 110 nM
- O=C(CCC(F)(F)F)N[C@@H](c1cnn2cc([C@@H](NC(=O)C3CC3C(F)(F)F)C3CCC(F)(F)CC3)nc2c1)C1CC1 (mixture of isomers) [Example 43, (Trans-1,2)-N—((S)-(7-((R)-cyclopropyl(4,4,4-trifluorobutanamido)methyl)imidazo[1,2-b]pyridazin-2-yl)(4,4-difluorocyclohexyl)methyl)-2-(trifluoromethyl)cyclopropane-1-carboxamide] — 19-fold higher, 720 nM
- O=C(CCC(F)(F)F)N[C@@H](c1cnn2cc([C@@H](NC(=O)c3nonc3CN3CC(F)(F)C3)C3CCC(F)(F)CC3)nc2c1)C1CC1 [Example 387, N—((S)-(7-((R)-Cyclopropyl(4,4,4-trifluorobutanamido)methyl)imidazo[1,2-b]pyridazin-2-yl)(4,4-difluorocyclohexyl)methyl)-4-((3,3-difluoroazetidin-1-yl)methyl)-1,2,5-oxadiazole-3-carboxamide] — 1.9-fold higher, 72 nM
- CC(C)c1ncsc1C(=O)N[C@H](c1cn2ncc([C@H](NC(=O)CCC(F)(F)F)C3CC3)cc2n1)C1CCC(F)(F)CC1 [Example 464, N—((S)-(7-((R)-Cyclopropyl(4,4,4-trifluorobutanamido)methyl)imidazo[1,2-b]pyridazin-2-yl)(4,4-difluorocyclohexyl)methyl)-4-isopropylthiazole-5-carboxamide] — 17-fold higher, 630 nM
- CC(C)c1nnsc1C(=O)N[C@H](c1cn2ncc([C@H](NC(=O)CCC(F)(F)F)C3CC3)cc2n1)C1CCC(F)(F)CC1 [Example 481, N—[(S)-[7-[(R)-Cyclopropyl-(4,4,4-trifluorobutanamido)methyl]imidazo[1,2-b]pyridazin-2-yl]-(4,4-difluorocyclohexyl)methyl]-4-isopropyl-thiadiazole-5-carboxamide] — 13-fold higher, 470 nM

same assay, conditions: adult normal human keratinocytes, IL-17A 5 ng/mL, 24 h, simple average if tested more than once

Point of comparison: `CC(C)n1nccc1C(=O)N[C@H](c1cn2ncc(C(CC3CCC3)NC(=O)CC3CC(F)(F)C3)cc2n1)C1CCC(F)(F)CC1` (single isomer, unassigned) [Example 441, N—((S)-(7-((S*)-2-Cyclobutyl-1-(2-(3,3-difluorocyclobutyl)acetamido)ethyl)imidazo[1,2-b]pyridazin-2-yl)(4,4-difluorocyclohexyl)methyl)-1-isopropyl-1H-pyrazole-5-carboxamide], IC50 1100 nM. Against it:
- CC(C)n1nccc1C(=O)N[C@H](c1cn2ncc(C(NC(=O)CC3CC(F)(F)C3)C(F)F)cc2n1)C1CCC(F)(F)CC1 (single isomer, unassigned) [Example 420, N—((S)-(7-((R*)-1-(2-(3,3-Difluorocyclobutyl)acetamido)-2,2-difluoroethyl)imidazo[1,2-b]pyridazin-2-yl)(4,4-difluorocyclohexyl)methyl)-1-isopropyl-1H-pyrazole-5-carboxamide] — 3.7-fold higher, 4100 nM
- CC(C)n1nccc1C(=O)N[C@H](c1cn2ncc(C(NC(=O)CC3CC(F)(F)C3)C(C)(C)O)cc2n1)C1CCC(F)(F)CC1 (single isomer, unassigned) [Example 442, N—((S)-(7-((S*)-1-(2-(3,3-Difluorocyclobutyl)acetamido)-2-hydroxy-2-methylpropyl)imidazo[1,2-b]pyridazin-2-yl)(4,4-difluorocyclohexyl)methyl)-1-isopropyl-1H-pyrazole-5-carboxamide] — 1.8-fold lower, 600 nM
- Cc1nonc1C(=O)N[C@H](c1cn2ncc(C(NC(=O)CC3CC(F)(F)C3)C(C)(C)O)cc2n1)C1CCC(F)(F)CC1 (single isomer, unassigned) [Example 443, N—((S)-(7-((S*)-1-(2-(3,3-Difluorocyclobutyl)acetamido)-2-hydroxy-2-methylpropyl)imidazo[1,2-b]pyridazin-2-yl)(4,4-difluorocyclohexyl)methyl)-4-methyl-1,2,5-oxadiazole-3-carboxamide] — 2.1-fold lower, 520 nM
- Cc1nonc1C(=O)N[C@H](c1cn2ncc(C(NC(=O)CCC(F)(F)F)C(F)F)cc2n1)C1CCC(F)(F)CC1 (single isomer, unassigned) [Example 515, N—((S)-(7-((S*)-2,2-Difluoro-1-(4,4,4-trifluorobutanamido)ethyl)imidazo[1,2-b]pyridazin-2-yl)(4,4-difluorocyclohexyl)methyl)-4-methyl-1,2,5-oxadiazole-3-carboxamide] — 7.9-fold lower, 140 nM
- O=C(CC1CC(F)(F)C1)NC(c1cnn2cc([C@@H](NC(=O)c3nonc3C3CC3)C3CCC(F)(F)CC3)nc2c1)C(F)F (single isomer, unassigned) [Example 518, 4-Cyclopropyl-N—((S)-(7-((R*)-1-(2-(3,3-difluorocyclobutyl)acetamido)-2,2-difluoroethyl)imidazo[1,2-b]pyridazin-2-yl)(4,4-difluorocyclohexyl)methyl)-1,2,5-oxadiazole-3-carboxamide] — 2.6-fold higher, 2900 nM
- CC(C)c1oncc1C(=O)N[C@H](c1cn2ncc([C@H](NC(=O)CCC(F)(F)F)C3CC3)cc2n1)C1CCC(F)(F)CC1 [Example 482, N—[(S)-[7-[(R)-Cyclopropyl-(4,4,4-trifluorobutanamido)methyl]imidazo[1,2-b]pyridazin-2-yl]-(4,4-difluorocyclohexyl)methyl]-5-isopropyl-isoxazole-4-carboxamide] — 14-fold lower, 76 nM
